Laboratory results from ChEMBL document CHEMBL1133382, “Probing the extended binding determinants of oligosaccharyl transferase with synthetic inhibitors of asparagine-linked glycosylation” (Bioorg Med Chem Lett, 2000).
Starred links: 1 amine or outer side, 2 acyl side, 3 side chain; linkers in the order of their positions; H or OH if unused. Positions of bridges follow the written chain, without caps; N, C: chain ends. Non-standard residues stand in square brackets, D forms with d. Residues, ends and D or L forms follow the SMILES beside them. *: point of attachment. Phe(4-NO2) = N[C@@H](Cc1ccc([N+](=O)[O-])cc1)C(=O)O; X1 = O=C(CCCCC[*:2])[*:1]; Dab = NCC[C@H](N)C(=O)O; X3 = c1ccc2cc(*)ccc2c1

Biological target: T1, Dolichyl-diphosphooligosaccharide--protein glycosyltransferase 48 kDa subunit (UniProt P39656)
T1 sequence (P39656 whole entry): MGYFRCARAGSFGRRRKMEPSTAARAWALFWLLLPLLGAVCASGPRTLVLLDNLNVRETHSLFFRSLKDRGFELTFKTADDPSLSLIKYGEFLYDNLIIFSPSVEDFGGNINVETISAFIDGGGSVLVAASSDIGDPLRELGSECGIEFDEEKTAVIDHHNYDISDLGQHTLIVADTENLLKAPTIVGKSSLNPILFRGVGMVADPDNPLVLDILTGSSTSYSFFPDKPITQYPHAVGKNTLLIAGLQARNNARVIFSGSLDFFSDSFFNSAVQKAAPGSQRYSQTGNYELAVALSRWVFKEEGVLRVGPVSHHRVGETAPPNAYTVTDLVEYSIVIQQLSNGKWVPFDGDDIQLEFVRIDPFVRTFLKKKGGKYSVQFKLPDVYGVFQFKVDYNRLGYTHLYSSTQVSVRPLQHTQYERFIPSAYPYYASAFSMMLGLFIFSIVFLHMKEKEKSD
Experiment: Inhibition of asparagine-linked glycosylation by oligosaccharyl transferase
Set-up: species or system Saccharomyces cerevisiae

Structure (SMILES)	Ki
CC(C)[C@H](NC(=O)[C@@H](NC(=O)[C@@H]1CSCCCCCC(=O)N[C@@H](CCN)C(=O)N1)[C@@H](C)O)C(=O)N[C@H](C(N)=O)[C@@H](C)O	82 nM
CC(C)[C@H](NC(=O)[C@@H](NC(=O)CNC(=O)[C@H](CCCNCc1ccccc1)NCc1ccccc1)[C@@H](C)O)C(=O)N[C@H](C(N)=O)[C@H](C)O	> 5000 nM
COc1ccc(CNCCC[C@H](NCc2ccccc2)C(=O)NCC(=O)N[C@H](C(=O)N[C@H](C(=O)N[C@H](C(N)=O)[C@@H](C)O)C(C)C)[C@@H](C)O)cc1 (HELM PEPTIDE1{[COc1ccc(CNCCC[C@H](NCc2ccccc2)C(=O)[*:2])cc1].G.T.V.T.[am]}$$$$V2.0)	305 nM
[H][C@@](NC(=O)[C@@H]1CSCCCCCC(=O)N[C@@H](CCN)C(=O)N1)(C(=O)N[C@H](C(=O)N[C@H](C(=O)N[C@@H](Cc1ccc([N+](=O)[O-])cc1)C(N)=O)[C@@H](C)O)C(C)C)[C@@H](C)O (HELM PEPTIDE1{[Dab].C.T.V.T.[O=C([C@H](Cc1ccc([N+](=O)[O-])cc1)N[*:1])[*:2]].[am]}|CHEM1{[O=C(CCCCC[*:2])[*:1]]}$PEPTIDE1,CHEM1,1:R1-1:R1|PEPTIDE1,CHEM1,2:R3-1:R2$$$V2.0)	37 nM
CC(C)[C@H](NC(=O)[C@@H](NC(=O)CNC(=O)[C@H](CCCNCc1ccc([N+](=O)[O-])cc1)NCc1ccccc1)[C@@H](C)O)C(=O)N[C@H](C(N)=O)[C@@H](C)O (HELM PEPTIDE1{[O=C([C@H](CCCNCc1ccc([N+](=O)[O-])cc1)NCc1ccccc1)[*:2]].G.T.V.T.[am]}$$$$V2.0)	154 nM

Next, values leading:

Ki	Structure (SMILES)
50 nM	CC(C)[C@H](NC(=O)[C@@H](NC(=O)[C@@H]1CSCCCCCC(=O)N[C@@H](CCN)C(=O)N1)[C@@H](C)O)C(=O)N[C@H](C(=O)NCCCCc1ccccc1)[C@@H](C)O
44 nM	CC(C)[C@H](NC(=O)[C@@H](NC(=O)[C@@H]1CSCCCCCC(=O)N[C@@H](CCN)C(=O)N1)[C@@H](C)O)C(=O)N[C@H](C(=O)NCCc1ccccc1)[C@@H](C)O
61 nM	CCCCCCCCCCNCC[C@@H]1NC(=O)CCCCCSC[C@@H](C(=O)N[C@H](C(=O)N[C@H](C(=O)N[C@H](C(=O)N[C@@H](Cc2ccc([N+](=O)[O-])cc2)C(N)=O)[C@@H](C)O)C(C)C)[C@@H](C)O)NC1=O
10 nM	CC(C)[C@H](NC(=O)[C@@H](NC(=O)[C@@H]1CSCCCCCC(=O)N[C@@H](CCNc2ccc3ccccc3c2)C(=O)N1)[C@@H](C)O)C(=O)N[C@H](C(=O)NCCc1ccc([N+](=O)[O-])cc1)[C@@H](C)O
20 nM	CC(C)[C@H](NC(=O)[C@@H](NC(=O)[C@@H]1CSCCCCCC(=O)N[C@@H](CCN)C(=O)N1)[C@@H](C)O)C(=O)N[C@H](C(=O)NCCc1ccc([N+](=O)[O-])cc1)[C@@H](C)O
40 nM	CC(C)[C@H](NC(=O)[C@@H](NC(=O)[C@@H]1CSCCCCCC(=O)N[C@@H](CCNc2ccc3ccccc3c2)C(=O)N1)[C@@H](C)O)C(=O)N[C@H](C(=O)N[C@@H](Cc1ccc([N+](=O)[O-])cc1)C(N)=O)[C@@H](C)O ([Dab](X3)CTVT[Phe(4-NO2)]-NH2; linker N-2 via X1)
